In US10548883B2, “Benzotriazole-derived α and β-unsaturated amide compound used as TGF-β RI inhibitor” (GENFLEET THERAPEUTICS (SHANGHAI) INC., priority 2016, dated 2020):
Where “and” joins values, the source holds several entries; their conditions need not be identical. Equal values may be shown once.

Key:
CT-26 cells = assay: Tumor cell proliferation inhibition in BALB/c mouse model of subcutaneously transplanted CT-26 cells, alone or combined with BioXcell-mPD-L1; assay type: in vivo; conditions: for Tumor volume: average ± SEM, small molecules 75 mg/kg PO twice a day, BioXcell-mPD-L1 10 mg/kg IP twice a week
Experimental: The following table lists the animal grouping and dosing regimen of embodiment 1, the positive reference compound LY2157299 and the BioXcell PD-L1 monoclonal antibody (BioXcell-mPD-L1), which are used alone or in combination in vivo.
Mouse colon cancer CT-26 cells were cultured in vitro in a single layer, and culture conditions is RPMI1640 medium (Medium No. 1640, Roswell Parker Memorial Institute) supplemented with 10% fetal bovine serum at 37° C., 5% CO2. Passage was routinely digested with trypsin-EDTA twice a week. When the cell saturation is 80%-90%, the cells are collected, counted, and inoculated.
0.1 mL (1×10^5) CT-26 cells were subcutaneously inoculated into the right back of each BALB/c mouse. The mice were administered in groups according to the body weight of the mice on the second day after cell inoculation.
The experimental indicator is to investigate whether tumor growth is inhibited, delayed or cured. Tumor diameters were measured with Vernier calipers twice a week. The tumor volume is calculated as: V=0.5a×b^2, and a and b represent the long and short diameters of the tumor, respectively.
The antitumor effect of the compound was evaluated by TGI (%) or tumor proliferation rate T/C (%). TGI (%) reflects the tumor growth inhibition rate. Calculation of TGI (%): TGI (%)=[(1-(mean tumor volume at the end of administration of a treatment group—mean tumor volume at the start of administration of the treatment group))/(mean tumor volume at the end of treatment of the solvent control group)—mean tumor volume at the start of treatment of the solvent control group)]×100%.
Tumor proliferation rate T/C (%): The formula is as follows: T/C %=T/C×100% (T: treatment group; C: negative control group).
Tumor weights were measured after the end of the experiment and the percentage of T/Cweight was calculated. Tweight and Cweight represent the tumor weights of the drug-administered group and the vehicle control group, respectively.
Statistical analysis, including mean and standard error (SEM) of tumor volume at each time point for each group (see Table 4 for specific data). […] T-test was used for comparison between the two groups, and one-way analysis of variance was used for comparison between three or more groups. If there was a significant difference in F values, the Gass-Howell method was used to test. If there is no significant difference in F values, the Dunnet (2-sided) method is used for analysis. All data analysis was performed with SPSS 17.0. A significant difference was considered at p<0.05.

[1] = tested on: mouse breast cancer 4T1 cells; assay: Tumor cell metastasis inhibition in BALB/c mouse orthotopic transplantation model of mouse breast cancer 4T1 cells; assay type: in vivo; conditions: 75 mg/kg PO once a day × 32
Experimental: Fluorescently labeled mouse breast cancer 4T1-Luc cells were expanded in vitro. Before the cells were collected, the mice were anesthetized with intraperitoneal injection of sodium pentobarbital. After anesthetized mice were fixed, the abdominal skin was disinfected with 70% alcohol. 100 uL of phosphate buffer (containing 0.5×10^6 4T1-luc2 cells) was inoculated into the left side of the fourth pair of abdominal mammary fat pads in mice, and the incision was sutured to disinfect the skin. The animals are kept warm with a warm blanket, observed until they wake up and put back in their cages. 0.1 mg/kg buprenorphine for pain relief was subcutaneously injected 30 min before surgery and 6 hours after surgery.
On the third day after modeling, the animals were subjected to bioluminescence detection by infrared data imaging, randomly grouped according to the fluorescence values, and administered according to the following experimental protocol, see Table 5.
To observe the inhibitory effect of embodiment 1 on tumor growth and metastasis, the experimental endpoint was designed to be 30-35 days after administration, with reference to historical data of the model. At the end of the experiment, the in situ tumor and various organ tissues were dissected, the tumor was weighed, and the fluorescence intensity of each organ was detected by IVIS fluorescence. Growth inhibition of orthotopic tumors can be compared by the weight of the in situ tumor in the experimental endpoint, and the inhibition curve is generated from the tumor volume measurement data twice a week during the experiment. The inhibition of tumor metastasis was determined by the presence or absence of fluorescence detection of each organ and the analysis of relative fluorescence intensity.
At the end of the experiment, the tumor weight will be detected and the relative tumor growth rate T/C (%) will be calculated; the tumor volume is calculated as: V=0.5a×b^2, and a and b represent the long and short diameters of the tumor, respectively. At the same time, the lung, liver, spleen, kidney, intestine and left upper limb were stripped, and fluorescence was detected to determine whether there was metastasis and metastasis intensity and ratio.
The antitumor effect of the compound was evaluated by the tumor growth inhibition rate TGI (%) or the relative tumor growth rate T/C (%).
Calculation of TGI (%): TGI (%)=[(1−mean tumor volume at the end of administration of a treatment group−mean tumor volume at the start of administration of the treatment group))/(mean tumor volume at the end of treatment of the solvent control group−mean tumor volume at the start of administration of the solvent control group)]×100%.
Relative tumor growth rate T/C (%) calculation: T/C(%)=Tt(treatment group)/Ct(control group)×100%, Tt is the average tumor volume at a certain measurement, and Ct takes the same day data.
The experimental results were statistically analyzed using one-way ANOVA. If there is a significant difference in F values, multiple comparisons should be made after ANOVA analysis. All data in this experiment were analyzed using SPSS 17.0. A significant difference was considered at p<0.05.
At the end of the experiment, each organ tissue was peeled off, and fluorescence imaging and fluorescence intensity value recording were measured by IVIS for 40 sec exposure within 8 min. The fluorescence imaging results of the tested tissues of the 10 animals excised by the maximum and minimum values are shown in Table 6.
According to the experimental end point, the fluorescence intensity of each group of organs was normalized by the control group, and the relative fluorescence intensity ratio of each group of organs was obtained. The ratio reflects the level of metastatic intensity on the corresponding organs.

[2] = animals with metastasis/animals in group
[3] = average organ fluorescence relative to control group

Compound: Cc1cccc(-c2nn3c(c2-c2ccc4ncnn4c2/C=C/C(N)=O)CCC3)n1 [Embodiment 1]
- Tumor volume (CT-26 cells; day 10 of administration): 102 ± 19 mm^3
- Tumor volume (CT-26 cells; day 13 of administration): 339 ± 89 mm^3
- Tumor volume (CT-26 cells; day 15 of administration): 552 ± 147 mm^3
- Tumor volume (CT-26 cells; day 17 of administration): 874 ± 240 mm^3
- Tumor volume (CT-26 cells; day 20 of administration): 1331 mm^3 and 1331 ± 394 mm^3
- Tumor proliferation rate T/C (CT-26 cells; twenty days after start of administration, 75 mg/kg PO and/or 10 mg/kg IP): 51%
- Antitumor effect compared with the solvent control group (CT-26 cells; twenty days after start of administration, 75 mg/kg and/or 10 mg/kg): no significant antitumor effect
- Inhibition of metastasis of 4T1 (conclusion) [1]: significantly inhibited the metastasis of 4T1 in liver, spleen, kidney and intestine
- Metastasis rate, intestine [1, 2]: 60%
- Metastasis rate, kidney [1, 2]: 20%
- Metastasis rate, liver [1, 2]: 50%
- Metastasis rate, lung [1, 2]: 100%
- Metastasis rate, spleen [1, 2]: 0%
- Metastasis rate, upper limb [1, 2]: 90%
- Metastasis level, intestine [1, 3]: 1%
- Metastasis level, kidney [1, 3]: 67%
- Metastasis level, liver [1, 3]: 10%
- Metastasis level, lung [1, 3]: 9%
- Metastasis level, spleen [1, 3]: 0%
- Metastasis level, upper limb [1, 3]: 12%
